Target: T1, Bma-GAR-3 (Brugia malayi, UniProt A0A4E9FL79)
T1 construct: full-length synthesized ORF; transgenic C. elegans gar-3(gk305) knockout, expressed in ASH neuron (sra-6p), body wall muscle (myo-3p) or pharynx (myo-2p)
Experiment: ring aversion assay, transgenic C. elegans expressing receptor in ASH neuron
Details: agonist; 100 mM in plate ring; whole transgenic worms, gar-3(gk305) knockout background; N2 and knockout as controls; also pharyngeal pumping and dye-uptake assays

T1 sequence (A0A4E9FL79 entry or part of it): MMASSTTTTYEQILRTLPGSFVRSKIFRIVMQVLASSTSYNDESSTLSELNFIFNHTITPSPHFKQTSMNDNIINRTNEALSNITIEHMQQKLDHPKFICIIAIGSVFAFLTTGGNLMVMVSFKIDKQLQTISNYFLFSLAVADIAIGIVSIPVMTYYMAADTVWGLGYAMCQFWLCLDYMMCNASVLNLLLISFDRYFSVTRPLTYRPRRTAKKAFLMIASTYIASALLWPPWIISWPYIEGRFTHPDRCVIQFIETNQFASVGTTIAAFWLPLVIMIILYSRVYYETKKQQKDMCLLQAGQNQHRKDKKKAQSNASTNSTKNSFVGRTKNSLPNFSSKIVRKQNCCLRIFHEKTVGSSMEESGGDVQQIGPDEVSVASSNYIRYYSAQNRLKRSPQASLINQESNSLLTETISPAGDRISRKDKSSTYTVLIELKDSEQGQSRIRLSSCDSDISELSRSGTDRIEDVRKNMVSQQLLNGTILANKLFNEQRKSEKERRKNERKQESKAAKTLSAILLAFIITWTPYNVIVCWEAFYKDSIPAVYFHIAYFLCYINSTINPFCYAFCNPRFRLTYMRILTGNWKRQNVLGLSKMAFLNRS

## C[N+](C)(C)CC#CCN1CCCC1=O [OXO, oxotremorine M]
  ring aversion assay, transgenic C. elegans expressing receptor in ASH neuron: this receptor is activated by acetylcholine and oxotremorine M

From PMC9872666, “Pharmacological Profiling of a Brugia malayi Muscarinic Acetylcholine Receptor as a Putative Antiparasitic Target” (Antimicrobial Agents and Chemotherapy, 2023)
